Converted amounts (≈) assume the structure as drawn.
Legend:
Type in all cases: in vivo
barnyardgrass [1] = test: Upland foliar application test (Test 3); conditions: 30 g ai/a, foliar spray at 2-3 leaves, 30th day
In short: (§1)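 Foliar post-emergence spray: diluted emulsifiable formulation applied at 5 l/are by pressure ULV sprayer once plants in upland-soil greenhouse pots reached 2-3 leaves. Degree of weed damage and crop injury rated on day 30 post-application.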

common lambsquarters = test: Upland foliar application test (Test 3); conditions: 30 g ai/a, foliar spray at 2-3 leaves, 30th day
In short: as §1

foxtail meadow = test: Upland foliar application test (Test 3); conditions: 30 g ai/a, foliar spray at 2-3 leaves, 30th day
In short: as §1

green foxtail = test: Upland foliar application test (Test 3); conditions: 30 g ai/a, foliar spray at 2-3 leaves, 30th day
In short: as §1

johnsongrass = test: Upland foliar application test (Test 3); conditions: 30 g ai/a, foliar spray at 2-3 leaves, 30th day
In short: as §1

large crabgrass = test: Upland foliar application test (Test 3); conditions: 30 g ai/a, foliar spray at 2-3 leaves, 30th day
In short: as §1

redroot pigweed = test: Upland foliar application test (Test 3); conditions: 30 g ai/a, foliar spray at 2-3 leaves, 30th day
In short: as §1

cotton = test: Upland foliar application test (Test 3), crop injury; conditions: 30 g ai/a, foliar spray at 2-3 leaves, 30th day
In short: as §1

peanut = test: as above; conditions: 30 g ai/a, foliar spray at 2-3 leaves, 30th day
In short: as §1

soybean = test: as above; conditions: 30 g ai/a, foliar spray at 2-3 leaves, 30th day
In short: as §1

Sagittaria pygmaea [2] = test: Treatment of soil under submerged condition, pre-emergence (Test 4); conditions: 30 g ai/a granule, 30 days later
In short: (§2)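 Wagner pots of soil were seeded or planted with weed seeds or tubers under flooding, then 2–3-leaf rice seedling pairs were transplanted and grown in a greenhouse. One day later, before weed emergence, pots received a granule of the test composition at a predetermined amount. Weed emergence and rice injury were scored 30 days later.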

barnyardgrass [3] = test: as above; conditions: 30 g ai/a granule, 30 days later
In short: as §2

bulrush [4] = test: as above; conditions: 30 g ai/a granule, 30 days later
In short: as §2

rice [5] = test: Treatment of soil under submerged condition, pre-emergence (Test 4), injury; conditions: 30 g ai/a granule, 30 days later
In short: as §2

Sagittaria pygmaea [6] = test: Treatment of soil under submerged condition, post-emergence (Test 5); conditions: 30 g ai/a granule, 30 days later
In short: (§3)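 Flooded pots; weed seeds/tubers sown, rice (2–3 leaf) transplanted as paired seedlings, greenhouse. Granular formulation applied post-emergence when barnyardgrass reached 2 leaves. Scored 30 d after treatment for weed damage and rice injury.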

barnyardgrass [7] = test: as above; conditions: 30 g ai/a granule, post-emergence (barnyardgrass two-leaf stage), 30 days later
In short: as §3

bulrush [8] = test: as above; conditions: 30 g ai/a granule, 30 days later
In short: as §3

rice [9] = test: Treatment of soil under submerged condition, post-emergence (Test 5), injury; conditions: 30 g ai/a granule, 30 days later
In short: as §3

narrowleaf waterplantain = test: Petri dish test (Test 6); conditions: 336 h; seeds on filter paper, 25° C., 14 days; read-out: I80 (ppm)
In short: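 Narrowleaf waterplantain seeds placed on filter paper pre-treated with compound in acetone (solvent air-dried) in 9 cm Petri dishes with 10 ml water, grown at 25° C in light. Growth was scored after fourteen days as degree of damage against an untreated group.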

Row | Structure (SMILES) | Herbicidal effects Barnyardgrass (barnyardgrass [1]) | Herbicidal effects Common lambsquarters (common lambsquarters) | Herbicidal effects Foxtail meadow (foxtail meadow) | Herbicidal effects Green foxtail (green foxtail) | Herbicidal effects Johnsongrass (johnsongrass) | Herbicidal effects Large crabgrass (large crabgrass) | Herbicidal effects Redroot pigweed (redroot pigweed) | Injury Cotton (cotton) | Injury Peanut (peanut) | Injury Soybean (soybean) | Herbicidal effects Sagittaria Pygmaea (Sagittaria pygmaea [2]) | Herbicidal effects Barnyardgrass (barnyardgrass [3]) | Herbicidal effects Bulrush (bulrush [4]) | Injury Rice (rice [5]) | Herbicidal effects Sagittaria Pygmaea (Sagittaria pygmaea [6]) | Herbicidal effects Barnyardgrass (barnyardgrass [7]) | Herbicidal effects Bulrush (bulrush [8]) | Injury Rice (rice [9]) | IC80 (narrowleaf waterplantain) [µg/mL]
1 | CCCC=CCON=Cc1ccccc1Oc1nc(OC)cc(OC)n1 [compound 25] | 4 (6-10 (Severe damages)) | 4 (6-10 (Severe damages)) | 5 (0-5 (Death)) | 5 (0-5 (Death)) | 5 (0-5 (Death)) | 5 (0-5 (Death)) | 4 (6-10 (Severe damages)) | 0 (91-100 (No damages)) | 0 (91-100 (No damages)) | 0 (91-100 (No damages)) | 4 (6-10 (Severe damages)) | 5 (0-5 (Death)) | 3 (11-40 (Medium damages)) | 1 (71-90 (Slight damages)) | 3 (11-40 (Medium damages)) | 4 (6-10 (Severe damages)) | 5 (0-5 (Death)) | 1 (71-90 (Slight damages)) | 17 (≈ 47.6 µM)
2 | COc1cc(OC)nc(Oc2ccccc2C=NOCC=Cc2ccc(F)cc2)n1 [compound 29] | 5 (0-5 (Death)) | 4 (6-10 (Severe damages)) | 4 (6-10 (Severe damages)) | 4 (6-10 (Severe damages)) | 5 (0-5 (Death)) | 4 (6-10 (Severe damages)) | 5 (0-5 (Death)) | 0 (91-100 (No damages)) | 0 (91-100 (No damages)) | 0 (91-100 (No damages)) | 3 (11-40 (Medium damages)) | 3 (11-40 (Medium damages)) | 3 (11-40 (Medium damages)) | 0 (91-100 (No damages)) | 4 (6-10 (Severe damages)) | 5 (0-5 (Death)) | 4 (6-10 (Severe damages)) | 1 (71-90 (Slight damages)) | 8 (≈ 19.5 µM)
3 | COc1cc(OC)nc(Oc2ccccc2C=NOCC=Cc2ccc(Cl)cc2Cl)n1 [compound 30] | 5 (0-5 (Death)) | 4 (6-10 (Severe damages)) | 5 (0-5 (Death)) | 5 (0-5 (Death)) | 5 (0-5 (Death)) | 5 (0-5 (Death)) | 5 (0-5 (Death)) | 0 (91-100 (No damages)) | 0 (91-100 (No damages)) | 0 (91-100 (No damages)) | 5 (0-5 (Death)) | 5 (0-5 (Death)) | 4 (6-10 (Severe damages)) | 0 (91-100 (No damages)) | 4 (6-10 (Severe damages)) | 5 (0-5 (Death)) | 4 (6-10 (Severe damages)) | 0 (91-100 (No damages)) | 2 (≈ 4.34 µM)
4 | COc1cc(OC)nc(Oc2ccccc2C=NOCC=Cc2ccc(Cl)c(Cl)c2)n1 [compound 31] | 4 (6-10 (Severe damages)) | 4 (6-10 (Severe damages)) | 4 (6-10 (Severe damages)) | 4 (6-10 (Severe damages)) | 5 (0-5 (Death)) | 4 (6-10 (Severe damages)) | 3 (11-40 (Medium damages)) | 0 (91-100 (No damages)) | 0 (91-100 (No damages)) | 0 (91-100 (No damages)) | 4 (6-10 (Severe damages)) | 3 (11-40 (Medium damages)) | 3 (11-40 (Medium damages)) | 0 (91-100 (No damages)) | 4 (6-10 (Severe damages)) | 5 (0-5 (Death)) | 4 (6-10 (Severe damages)) | 0 (91-100 (No damages)) | 2 (≈ 4.34 µM)
5 | COc1cc(OC)nc(Oc2ccccc2C=NOCC=Cc2ccccc2C(F)(F)F)n1 [compound 32] | 5 (0-5 (Death)) | 4 (6-10 (Severe damages)) | 5 (0-5 (Death)) | 5 (0-5 (Death)) | 5 (0-5 (Death)) | 5 (0-5 (Death)) | 5 (0-5 (Death)) | 0 (91-100 (No damages)) | 0 (91-100 (No damages)) | 0 (91-100 (No damages)) | 5 (0-5 (Death)) | 5 (0-5 (Death)) | 4 (6-10 (Severe damages)) | 0 (91-100 (No damages)) | 4 (6-10 (Severe damages)) | 5 (0-5 (Death)) | 4 (6-10 (Severe damages)) | 1 (71-90 (Slight damages)) | 4 (≈ 8.71 µM)
6 | COc1cc(OC)nc(Oc2ccccc2C=NOCC=Cc2c(F)cccc2F)n1 [compound 33] | 5 (0-5 (Death)) | 4 (6-10 (Severe damages)) | 5 (0-5 (Death)) | 5 (0-5 (Death)) | 5 (0-5 (Death)) | 5 (0-5 (Death)) | 4 (6-10 (Severe damages)) | 0 (91-100 (No damages)) | 0 (91-100 (No damages)) | 0 (91-100 (No damages)) | 5 (0-5 (Death)) | 4 (6-10 (Severe damages)) | 4 (6-10 (Severe damages)) | 0 (91-100 (No damages)) | 4 (6-10 (Severe damages)) | 5 (0-5 (Death)) | 5 (0-5 (Death)) | 1 (71-90 (Slight damages)) | 8 (≈ 18.7 µM)
7 | COc1cc(OC)nc(Oc2ccccc2C=NOCC=Cc2ccc(C(F)(F)F)cc2)n1 [compound 35] | 5 (0-5 (Death)) | 4 (6-10 (Severe damages)) | 5 (0-5 (Death)) | 5 (0-5 (Death)) | 5 (0-5 (Death)) | 5 (0-5 (Death)) | 4 (6-10 (Severe damages)) | 0 (91-100 (No damages)) | 0 (91-100 (No damages)) | 0 (91-100 (No damages)) | 5 (0-5 (Death)) | 4 (6-10 (Severe damages)) | 3 (11-40 (Medium damages)) | 0 (91-100 (No damages)) | 3 (11-40 (Medium damages)) | 5 (0-5 (Death)) | 4 (6-10 (Severe damages)) | 0 (91-100 (No damages)) | 6 (≈ 13.1 µM)
8 | COc1cc(OC)nc(Oc2ccccc2C=NOCC=Cc2ccc(C)cc2)n1 [compound 36] | 5 (0-5 (Death)) | 4 (6-10 (Severe damages)) | 5 (0-5 (Death)) | 5 (0-5 (Death)) | 5 (0-5 (Death)) | 5 (0-5 (Death)) | 4 (6-10 (Severe damages)) | 0 (91-100 (No damages)) | 0 (91-100 (No damages)) | 0 (91-100 (No damages)) | 5 (0-5 (Death)) | 4 (6-10 (Severe damages)) | 4 (6-10 (Severe damages)) | 0 (91-100 (No damages)) | 4 (6-10 (Severe damages)) | 5 (0-5 (Death)) | 5 (0-5 (Death)) | 1 (71-90 (Slight damages)) | 4 (≈ 9.87 µM)

Source: patent US5053070A, “Pyrimidine derivatives, preparation processes thereof, herbicide containing the same, and herbicidal compositions containing the same along with other active ingredient” (Mitsui Toatsu Chemicals, Incorporated, priority 1988, dated 1991)
